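Five compound concentrations were applied to cells in 96-well plates for 48 hours; endpoints were derived by simple linear interpolation of the resulting dose-response curve. TGI: concentration producing complete growth inhibition.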
Experiments:
Assay in all cases: NCI anticancer screen, dose series, 48 h
[1] = test system: 786-0 renal
[2] = test system: A498 renal
[3] = test system: A549 NSCLC
[4] = test system: ACHN renal
[5] = test system: BT-549 breast
[6] = test system: CAKI-1 renal
[7] = test system: CCRF-CEM leukemia
[8] = test system: COLO 205 colon
[9] = test system: DU-145 prostate
[10] = test system: EKVX NSCLC
[11] = test system: HCC-2998 colon
[12] = test system: HCT-116 colon
[13] = test system: HCT-15 colon
[14] = test system: HL-60(TB) leukemia
[15] = test system: HOP-62 NSCLC
[16] = test system: HOP-92 NSCLC
[17] = test system: HS 578T breast
[18] = test system: HT29 colon
[19] = test system: IGROV1 ovarian
[20] = test system: K-562 leukemia
[21] = test system: KM12 colon
[22] = test system: LOX IMVI melanoma
[23] = test system: M14 melanoma
[24] = test system: MALME-3M melanoma
[25] = test system: MCF7 breast
[26] = test system: MDA-MB-231 breast
[27] = test system: MDA-MB-435
[28] = test system: MDA-N
[29] = test system: MOLT-4 leukemia
[30] = test system: NCI-H226 lung
[31] = test system: NCI-H23 lung
[32] = test system: NCI-H460 lung
[33] = test system: NCI-H522 lung
[34] = test system: NCI/ADR-RES ovarian
[35] = test system: OVCAR-3 ovarian
[36] = test system: OVCAR-4 ovarian
[37] = test system: OVCAR-5 ovarian
[38] = test system: OVCAR-8 ovarian
[39] = test system: PC-3 prostate
[40] = test system: RPMI-8226 leukemia
[41] = test system: SF-268 CNS
[42] = test system: SF-295 CNS
[43] = test system: SF-539 CNS
[44] = test system: SK-MEL-2 melanoma
[45] = test system: SK-MEL-28 melanoma
[46] = test system: SK-MEL-5 melanoma
[47] = test system: SK-OV-3 ovarian
[48] = test system: SN12C renal
[49] = test system: SNB-19 CNS
[50] = test system: SNB-75 CNS
[51] = test system: SR leukemia
[52] = test system: SW-620 colon
[53] = test system: T-47D breast
[54] = test system: TK-10 renal
[55] = test system: U251 CNS
[56] = test system: UACC-257 melanoma
[57] = test system: UACC-62 melanoma
[58] = test system: UO-31 renal

Measured: TGI

O=C(Cn1c(=O)oc2ccc(C(=O)c3ccccc3Cl)cc21)c1ccc([N+](=O)[O-])cc1
75 µM: [5]
65.5 µM: [48]
79.7 µM: [26]
40.7 µM: [57]
66 µM: [47]
46.6 µM: [27]
30.9 µM: [22]
81.7 µM: [42]
89.1 µM: [25]
83 µM: [20]
65.4 µM: [13]
59.4 µM: [35]
55.7 µM: [32]
65.9 µM: [43]
39.1 µM: [28]
69.5 µM: [24]
58.1 µM: [21]
77.2 µM: [40]
56.5 µM: [53]
35.6 µM: [12]
40.5 µM: [46]
90.3 µM: [56]
41.6 µM: [44]
39.6 µM: [8]
47.5 µM: [23]
39.9 µM: [33]
34.6 µM: [11]
> 100 µM: all other assays above

CCCCCCCCCCCCCCCCCCOc1ccc(/C=C/C2=[N+](CCCl)CCO2)cc1
not listed: [11] | [30] | [31] | [41]
> 100 µM: all other assays above

Source: PubChem BioAssay (NCI)
